# Test results taken from ChEMBL document CHEMBL1150990, “Studies of the inactivation of general acyl-coa dehydrogenase by (1R)- and (1S)-(methylenecyclopropyl)acetyl-coa” (Bioorg Med Chem Lett, 1992).
# Experiments:
# [1] = Partition ratio of the inactivation of general acyl-CoA dehydrogenase by the compound was determined
# [2] = Inactivation of general acyl-CoA dehydrogenase by the compound was determined and expressed as kinact
Compound,Ratio [1],K inact [2] [s⁻¹]
C=C1C[C@@H]1CC(=O)SCCNC(=O)CCNC(=O)[C@H](O)C(C)(C)COP(=O)(O)OP(=O)(O)OC[C@H]1O[C@@H](n2cnc3c(N)ncnc32)[C@H](O)[C@@H]1OP(=O)(O)O,3.4,0.0173
C=C1C[C@H]1CC(=O)SCCNC(=O)CCNC(=O)[C@H](O)C(C)(C)COP(=O)(O)OP(=O)(O)OC[C@H]1O[C@@H](n2cnc3c(N)ncnc32)[C@H](O)[C@@H]1OP(=O)(O)O,4,0.0163
